Some results are limits rather than exact numbers.

This is an account of results in ChEMBL document CHEMBL3352727, “Synthesis, biological evaluation and docking analysis of 3-methyl-1-phenylchromeno[4,3-c]pyrazol-4(1H)-ones as potential cyclooxygenase-2 (COX-2) inhibitors” (Bioorg Med Chem Lett, 2014).

For experiment [1], the target named is T1, Prostaglandin G/H synthase 1 (Ovis aries) (UniProt P05979).
T1 sequence (whole entry): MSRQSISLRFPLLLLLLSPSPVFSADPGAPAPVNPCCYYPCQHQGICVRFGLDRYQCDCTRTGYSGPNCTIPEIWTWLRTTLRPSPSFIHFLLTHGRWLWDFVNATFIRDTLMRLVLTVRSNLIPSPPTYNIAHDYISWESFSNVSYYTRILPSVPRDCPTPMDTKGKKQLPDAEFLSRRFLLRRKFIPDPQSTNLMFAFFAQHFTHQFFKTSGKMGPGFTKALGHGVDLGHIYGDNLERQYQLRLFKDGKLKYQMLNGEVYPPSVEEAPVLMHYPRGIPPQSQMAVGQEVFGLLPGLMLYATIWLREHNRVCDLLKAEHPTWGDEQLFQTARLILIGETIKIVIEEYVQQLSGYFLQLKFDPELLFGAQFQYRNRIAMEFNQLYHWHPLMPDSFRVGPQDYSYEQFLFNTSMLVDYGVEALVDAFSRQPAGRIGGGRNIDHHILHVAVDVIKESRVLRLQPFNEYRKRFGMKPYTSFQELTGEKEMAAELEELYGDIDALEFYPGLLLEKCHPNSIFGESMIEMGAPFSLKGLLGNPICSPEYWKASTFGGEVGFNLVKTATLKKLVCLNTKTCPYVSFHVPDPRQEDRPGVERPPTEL
Put plainly: Inhibition of ovine COX1 assessed as reduction in PGF2alpha formation at 10 uM incubated for 18 hrs by enzyme immunoassay.

The subject of experiment [2] is Rattus norvegicus. The experiment in a line: Anti-inflammatory activity in Sprague-Dawley rat model of carrageenan-induced paw edema assessed as inhibition of paw edema volume at 150 umol/kg, po dosed 1 hr before carrageenan challenge and measured 3 hrs post carrageenan challenge. Type of experiment: functional. (Carrageenan injected into the paw causes an acute inflammation.)

In experiment [3] the test system is Rattus norvegicus. Put plainly: Anti-inflammatory activity in Sprague-Dawley rat model of carrageenan-induced paw edema assessed as inhibition of paw edema volume at 150 umol/kg, po dosed 1 hr before carrageenan challenge and measured 1 hr post carrageenan challenge. The class given is functional.
In experiment [4] the target is T2, Prostaglandin G/H synthase 1 (Ovis aries, UniProt P05979).
T2 sequence (P05979 whole entry): T1 sequence (whole entry)
Put plainly: Inhibition of ovine COX1 assessed as reduction in PGF2alpha formation incubated for 18 hrs by enzyme immunoassay.

Experiment [5] relates to Rattus norvegicus. The experiment in a line: Anti-inflammatory activity in Sprague-Dawley rat model of carrageenan-induced paw edema assessed as inhibition of paw edema volume at 150 umol/kg, po dosed 1 hr before carrageenan challenge and measured 5 hrs post carrageenan challenge. Type of experiment: functional.

As a reminder, the inhibition is the drop in the measured response relative to a control, in per cent. Regarding `COc1ccc2c(c1)oc(=O)c1c(C)nn(-c3cc(C)ccc3C)c12`, in experiment [1], the inhibition turned out to be 39.5%.

The term inhibition in vivo denotes how much of the control response was suppressed. In general, IC50 refers to the concentration at which inhibition is half-maximal. Turning to `Cc1nn(-c2ccc(Cl)cc2)c2c1c(=O)oc1ccccc12`, the inhibition in vivo at 150 µmol/kg in the experiment with Rattus norvegicus [2] worked out at 35.2%; in the experiment with Rattus norvegicus [3] it was 21.3%; in the experiment with Rattus norvegicus [5], 49.4%. Also, the inhibition in experiment [1] came out at 43.7%. Besides, the IC50 in experiment [4] is > 30 µM.

Regarding `COc1ccc2c(c1)oc(=O)c1c(C)nn(-c3ccc(Br)cc3)c12`, the inhibition in experiment [1] amounted to 27.3%.

Take `COc1ccc2c(c1)oc(=O)c1c(C)nn(-c3ccccc3C(F)(F)F)c12`: in experiment [1], the inhibition is 38.2%.

For the compound `COc1ccc2c(c1)oc(=O)c1c(C)nn(-c3ccc(Cl)cc3)c12`, the inhibition in experiment [1] worked out at 34.8%.

`Cc1nn(-c2ccc(Cl)cc2Cl)c2c1c(=O)oc1ccccc12`: the inhibition in experiment [1] turned out to be 30.5%.

As to `Cc1nn(-c2ccccc2)c2c1c(=O)oc1ccc(Cl)cc12`, in experiment [1], the inhibition came to 43.8%.

On to `COc1ccc2c(c1)oc(=O)c1c(C)nn(-c3ccc(F)cc3)c12`, for which, in experiment [1], the inhibition came out at 34.8%.

On to `Cc1ccc(C)c(-n2nc(C)c3c(=O)oc4ccccc4c32)c1`, for which, in experiment [1], the inhibition turned out to be 21.3%.

In the case of `Cc1ccc(-c2cc(C(F)(F)F)nn2-c2ccc(S(N)(=O)=O)cc2)cc1` [CELECOXIB], the values for the inhibition in vivo at 150 µmol/kg in the experiment with Rattus norvegicus [2], in the experiment on Rattus norvegicus [3] and with Rattus norvegicus [5] were 38.8%, 24.4% and 51.4%, respectively.

Consider `Cc1nn(-c2ccc(C(F)(F)F)cc2)c2c1c(=O)oc1ccc(Cl)cc12`, for which the inhibition in vivo at 150 µmol/kg was 36.1% in the experiment with Rattus norvegicus [2], 23.3% in the experiment on Rattus norvegicus [3] and 57.8% in the experiment with Rattus norvegicus [5]. The inhibition in experiment [1] turned out to be 33.2%. In addition, the IC50 in experiment [4] is > 30 µM.

For `Cc1ccc(C)c(-n2nc(C)c3c(=O)oc4ccc(Cl)cc4c32)c1`, the inhibition in experiment [1] worked out at 39.2%.

Regarding `COc1ccc2c(c1)oc(=O)c1c(C)nn(-c3ccccc3)c12`, in experiment [1], the inhibition was 43.2%.

With `Cc1nn(-c2ccc(C(F)(F)F)cc2)c2c1c(=O)oc1ccccc12`, the inhibition in vivo at 150 µmol/kg in the experiment on Rattus norvegicus [2] is 40.4%; in the experiment with Rattus norvegicus [3] it was 27.6%; in the experiment with Rattus norvegicus [5] it was 59.9%. Further, in experiment [1], the inhibition turned out to be 34.3%. Moreover, the IC50 in experiment [4] is > 30 µM.

For the compound `Cc1nn(-c2ccc(Br)cc2)c2c1c(=O)oc1ccccc12`, the inhibition in vivo at 150 µmol/kg was found to be 27.8% in the experiment on Rattus norvegicus [2], 14.2% with Rattus norvegicus [3] and 37% in the experiment on Rattus norvegicus [5]. Besides, the inhibition in experiment [1] amounted to 47.5%. In experiment [4], the IC50 is > 30 µM.

With `Cc1nn(-c2ccc(F)cc2)c2c1c(=O)oc1ccccc12`, the figures for the inhibition in vivo at 150 µmol/kg in the experiment with Rattus norvegicus [2], with Rattus norvegicus [3] and with Rattus norvegicus [5] were 39.8%, 24.6% and 55.6%, respectively. Also, the inhibition in experiment [1] worked out at 28.3%. For the same compound, the IC50 in experiment [4] is > 30 µM.

As for `Cc1nn(-c2ccccc2)c2c1c(=O)oc1ccc(Br)cc12`, the inhibition in experiment [1] came out at 54.2%.

For the compound `Cc1nn(-c2ccccc2)c2c1c(=O)oc1ccccc12`, the inhibition in vivo at 150 µmol/kg worked out at 30.1% with Rattus norvegicus [2], 19.3% in the experiment on Rattus norvegicus [3] and 38.2% with Rattus norvegicus [5]. Besides, the inhibition in experiment [1] stood at 48.1%. Also, the IC50 in experiment [4] was > 30 µM.

Consider `Cc1nn(-c2ccccc2C(F)(F)F)c2c1c(=O)oc1ccccc12`, for which, in experiment [1], the inhibition is 34.6%.

For `COc1ccc2c(c1)oc(=O)c1c(C)nn(-c3ccc(C(F)(F)F)cc3)c12`, the results for the inhibition in vivo at 150 µmol/kg in the experiment with Rattus norvegicus [2], in the experiment on Rattus norvegicus [3] and with Rattus norvegicus [5] were 32.2%, 21.7% and 43.7%, respectively. In experiment [1], the inhibition came to 33.2%. In experiment [4], the IC50 was > 30 µM.
